Source: patent publication US11702426B2, “Macrocyclic deaza-purinones for the treatment of viral infections” (JANSSEN SCIENCES IRELAND UNLIMITED COMPANY, priority 2013, dated 2023)
Read-outs that look alike come from different tables or passages of the source.

Assays:
[1] = rcm bond, Grubbs 2nd generation, CH2Cl2, 25.0 °C
[2] = target: T1, human TLR7 (Homo sapiens, UniProt Q9NYK1); test: HEK293 TLR7-NFκB-luc cellular reporter assay; assay type: cell-based; details: lowest effective concentration; HEK293 transiently transfected with TLR7 and NFκB-luc; 6 hours incubation
T1 construct: expressed in transfected cells; host or cells: HEK293
T1 sequence (Q9NYK1 27-1049): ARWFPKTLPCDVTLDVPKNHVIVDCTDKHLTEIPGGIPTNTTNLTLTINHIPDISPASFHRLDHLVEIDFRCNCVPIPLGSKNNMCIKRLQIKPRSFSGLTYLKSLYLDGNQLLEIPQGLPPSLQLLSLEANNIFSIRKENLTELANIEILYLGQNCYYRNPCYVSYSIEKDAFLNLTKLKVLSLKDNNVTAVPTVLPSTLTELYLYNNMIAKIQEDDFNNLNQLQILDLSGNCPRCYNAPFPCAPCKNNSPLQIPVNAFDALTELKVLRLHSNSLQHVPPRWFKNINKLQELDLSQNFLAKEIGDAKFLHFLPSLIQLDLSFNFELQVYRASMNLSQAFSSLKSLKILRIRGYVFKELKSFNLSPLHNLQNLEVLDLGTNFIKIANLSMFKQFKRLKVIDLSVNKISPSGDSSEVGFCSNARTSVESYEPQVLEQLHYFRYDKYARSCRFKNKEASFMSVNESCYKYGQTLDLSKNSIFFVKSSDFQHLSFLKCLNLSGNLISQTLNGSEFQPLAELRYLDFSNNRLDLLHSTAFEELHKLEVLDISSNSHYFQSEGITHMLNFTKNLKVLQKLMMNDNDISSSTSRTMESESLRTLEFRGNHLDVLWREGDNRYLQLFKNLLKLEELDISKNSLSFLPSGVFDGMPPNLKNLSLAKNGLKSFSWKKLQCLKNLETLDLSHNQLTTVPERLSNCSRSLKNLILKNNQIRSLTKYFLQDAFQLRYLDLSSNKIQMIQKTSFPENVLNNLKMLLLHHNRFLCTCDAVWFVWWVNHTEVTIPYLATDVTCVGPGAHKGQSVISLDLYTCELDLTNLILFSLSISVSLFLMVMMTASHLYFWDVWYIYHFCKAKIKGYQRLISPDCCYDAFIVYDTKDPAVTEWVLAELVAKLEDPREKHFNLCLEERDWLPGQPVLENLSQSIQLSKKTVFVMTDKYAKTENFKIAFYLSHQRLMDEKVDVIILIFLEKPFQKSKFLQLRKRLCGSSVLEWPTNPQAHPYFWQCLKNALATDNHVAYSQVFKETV
Experimental: The ability of compounds to activate human TLR7 and TLR8 was assessed in a cellular reporter assay using HEK293 cells transiently transfected with a TLR7 or TLR8 expression vector and NFκB-luc reporter construct. Briefly, HEK293 cells were grown in culture medium (DMEM supplemented with 10% FCS and 2 mM Glutamine). For transfection of cells in 15 cm dishes, cells were detached with Trypsin-EDTA, transfected with a mix of CMV-TLR7 or TLR8 plasmid (1,700 ng), NFκB-luc plasmid (850 ng) and a transfection reagent and incubated 48 hours at 37° C. in a humidified 5% CO2 atmosphere. Transfected cells were then washed in PBS, detached with Trypsin-EDTA, and resuspended in medium to a density of 1.25×10^5 cells/mL. Forty microliters of cells were then dispensed into each well in 384-well plates, where 200 nL of compound in 100% DMSO was already present. Following 6 hours incubation at 37° C., 5% CO2, the luciferase activity was determined by adding 15 μl of Steady Lite Plus substrate (Perkin Elmer) to each well and readout performed on a ViewLux ultraHTS microplate imager (Perkin Elmer). Dose response curves were generated from measurements performed in quadruplicates. Lowest effective concentrations (LEC) values, defined as the concentration that induces an effect which is at least two fold above the standard deviation of the assay, were determined for each compound.

[3] = system: interferon production in human PBMC; test: Interferon production in human PBMC, read out on HEK-ISRE-luc reporter cells; assay type: cell-based; details: lowest effective concentration, PBMC incubated overnight with compound, supernatant transferred to HEK-ISRE-luc cells; for minimal effective concentration: Homo sapiens, PBMC, 24 h, read-out: PBMC HEK-ISRE-luc (LEC; μM); for PBMC HEK-ISRE-luc (LEC; μM): 24 hours
Experimental: Activation of human TLR7 results in robust production of interferon by plasmacytoid dendritic cells present in human blood. The potential of compounds to induce interferon was evaluated by determination of interferon in the conditioned media from peripheral blood mononuclear cells (PBMC). The presence of interferon in the samples was determined, using an interferon reporter cell line stably expressing an interferon-stimulated responsive elements (ISRE)-luc reporter construct. The ISRE element with sequence TAGTTTCACTTTCCC (SEQ ID NO: 1) is highly responsive to the STAT1-STAT2-IRF9 transcription factor, which becomes activated upon binding of IFN-I to the IFN receptor. Briefly, PBMCs were prepared from buffy coats of at least two donors using a standard Ficoll centrifugation protocol. Isolated PBMCs were resuspended in RPMI medium supplemented with 10% human AB serum and 2×10^5 cells/well were dispensed into 384-well plates containing compounds (70 μL total volume). After overnight incubation of the PBMCs with the compounds, 10 μL of supernatant was transferred to 384-well plates containing 5×10^3 HEK-ISRE-luc cells/well in 30 μL (plated the day before). Following 24 hours of incubation, activation of the ISRE elements was measured by assaying luciferase activity using 40 μL/well Steady Lite Plus substrate (Perkin Elmer) and measured with ViewLux ultraHTS microplate imager (Perkin Elmer). The stimulating activity of each compound on the HEK-ISRE-luc cells was reported as LEC. The LEC in turn indicates the degree of ISRE activation on transfer of a defined amount of PBMC culture medium. Recombinant interferon alfa-2a (Roferon-A) was used as a standard control compound.

HEK293 TLR7-NFκB-luc (LEC; μM) [2] [µM] | Compound | ring closure, yield of all isomers ([1]; from C=CCCOc1cc(N(Cc2cc(OC)cc(OCC=C)c2)C(=O)OCC)c([N+](=O)[O-])c(N)n1, 5.3 mM, 16.0 h) [%] | ring closure, yield of all isomers ([1]; from C=CCCOc1cc(N(Cc2cccc(CC=C)c2)C(=O)OCC)c([N+](=O)[O-])c(N)n1, 3.38 mM, 72.0 h) [%] | minimal effective concentration [3] [µM] | PBMC HEK-ISRE-luc (LEC; μM) [3] [µM]
– | CCOC(=O)N1Cc2cc(OC)cc(c2)OCC=CCCOc2cc1c([N+](=O)[O-])c(N)n2 | 41 | – | – | –
– | CCOC(=O)N1Cc2cccc(c2)CC=CCCOc2cc1c([N+](=O)[O-])c(N)n2 | – | 33 | – | –
2.88 | Nc1nc2cc3c1nc(O)n3Cc1cccc(c1)OC/C=C/CO2 [Compound 1] | – | – | 0.3 | –
4.47 | Nc1nc2cc3c1nc(O)n3Cc1cccc(c1)OCCCCO2 [Compound 2] | – | – | 0.93 | –
0.27 | Nc1nc2cc3c1nc(O)n3Cc1cccc(c1)C/C=C/CCO2 [Compound 3] | – | – | 0.033 | –
2.14 | Nc1nc2cc3c1nc(O)n3Cc1ncccc1OC/C=C/CCO2 [Compound 5] | – | – | 0.082 | –
1 | Nc1nc2cc3c1nc(O)n3Cc1ncccc1OCCCCCO2 [Compound 6] | – | – | 0.16 | –
3.88 | COc1ccc2cc1OC/C=C/COc1cc3c(nc(O)n3C2)c(N)n1 [Compound 7] | – | – | 0.29 | –
7.1 | COc1ccc2cc1OCCCCOc1cc3c(nc(O)n3C2)c(N)n1 [Compound 8] | – | – | 0.58 | –
11.09 | Nc1nc2cc3c1nc(O)n3Cc1cccc(c1)CCCCCN2 [Compound 9] | – | – | 10.9 | –
0.78 | Nc1nc2cc3c1nc(O)n3Cc1cccc(c1)OC/C=C/CCO2 [Compound 10] | – | – | 0.25 | –
1.25 | Nc1nc2cc3c1nc(O)n3Cc1cccc(c1)OC/C=C/CCCO2 [Compound 11] | – | – | 0.45 | –
1.08 | COc1cc2cc(c1)OC/C=C/COc1cc3c(nc(O)n3C2)c(N)n1 [Compound 12] | – | – | 0.3 | –
1.71 | COc1cc2cc(c1)OCCCCOc1cc3c(nc(O)n3C2)c(N)n1 [Compound 13] | – | – | 0.15 | –
7.01 | Nc1nc2cc3c1nc(O)n3Cc1cccc(c1)OCCCCCO2 [Compound 14] | – | – | 2.4 | –
0.18 | COc1cc2cc(c1)OC/C=C/CCOc1cc3c(nc(O)n3C2)c(N)n1 [Compound 15] | – | – | 0.04 | –
2.02 | Nc1nc2cc3c1nc(O)n3Cc1ccc(F)c(c1)OC/C=C/CO2 [Compound 16] | – | – | 0.47 | –
1.88 | Cl.Nc1nc2cc3c1nc(O)n3Cc1ccc(F)c(c1)OC/C=C/CO2 [Compound 17] | – | – | – | 0.39
8.02 | Nc1nc2cc3c1nc(O)n3Cc1cccc(c1)NC/C=C/CO2 [Compound 18] | – | – | 1.11 | –

HEK293 TLR7-NFκB-luc (LEC; μM) [2] [µM] | Compound | ring closure, yield of all isomers ([1]; from C=CCCOc1cc(N(Cc2cc(OC)cc(OCC=C)c2)C(=O)OCC)c([N+](=O)[O-])c(N)n1, 5.3 mM, 16.0 h) [%] | ring closure, yield of all isomers ([1]; from C=CCCOc1cc(N(Cc2cccc(CC=C)c2)C(=O)OCC)c([N+](=O)[O-])c(N)n1, 3.38 mM, 72.0 h) [%] | minimal effective concentration [3] [µM] | PBMC HEK-ISRE-luc (LEC; μM) [3] [µM]
14.96 | Nc1nc2cc3c1nc(O)n3Cc1ccc(F)c(c1)OCCCCCO2 [Compound 19] | – | – | 2.22 | –
4.99 | Cl.Nc1nc2cc3c1nc(O)n3Cc1ccc(F)c(c1)OCCCCCO2 [Compound 20] | – | – | – | 1.61
0.9 | Nc1nc2cc3c1nc(O)n3Cc1ccc(F)c(c1)OC/C=C/CCO2 [Compound 21] | – | – | 0.25 | –
1.83 | Cl.Nc1nc2cc3c1nc(O)n3Cc1ccc(F)c(c1)OC/C=C/CCO2 [Compound 22] | – | – | – | 0.39
16.74 | Nc1nc2cc3c1nc(O)n3Cc1cccc(c1)NCCCCO2 [Compound 23] | – | – | 8.98 | –
– | Nc1nc2cc3c1nc(O)n3Cc1ccc(F)c(c1)OCCCCO2 [Compound 24] | – | – | 2.14 | –
1.92 | Nc1nc2cc3c1nc(O)n3Cc1cccc(c1)OCC/C=C/CO2 [Compound 25] | – | – | 0.53 | –
1.88 | Nc1nc2cc3c1nc(O)n3Cc1cccc(c1)NC/C=C/CCO2 [Compound 26] | – | – | 0.37 | –
1.35 | Nc1nc2cc3c1nc(O)n3Cc1cc(F)cc(c1)OC/C=C/CCO2 [Compound 27] | – | – | 0.14 | –
0.91 | Cl.Nc1nc2cc3c1nc(O)n3Cc1cc(F)cc(c1)OC/C=C/CCO2 [Compound 28] | – | – | – | 0.15
1.14 | Nc1nc2cc3c1nc(O)n3Cc1cccc(c1)NC/C=C\CCO2 [Compound 29] | – | – | 0.48 | –
0.64 | Nc1nc2cc3c1nc(O)n3Cc1cc(F)cc(c1)OC/C=C/CO2 [Compound 30] | – | – | 0.15 | –
1.19 | Cl.Nc1nc2cc3c1nc(O)n3Cc1cc(F)cc(c1)OC/C=C/CO2 [Compound 31] | – | – | – | 0.15
2.92 | Nc1nc2cc3c1nc(O)n3Cc1cc(F)cc(c1)OCCCCCO2 [Compound 32] | – | – | 0.49 | –
2.77 | Nc1nc2cc3c1nc(O)n3Cc1cc(F)cc(c1)OCCCCO2 [Compound 33] | – | – | 0.45 | –
8.1 | Nc1nc2cc3c1nc(O)n3Cc1cccc(c1)NCCCCCO2 [Compound 34] | – | – | 2.11 | –
17.43 | Nc1nc2cc3c1nc(O)n3CCc1cccc(c1)OC/C=C/CO2 [Compound 35] | – | – | 1.98 | –
13.75 | COc1ccc2cc1OC/C=C/COc1cc3c(nc(O)n3CC2)c(N)n1 [Compound 36] | – | – | 1.63 | –
